Measured values taken from patent US10086039B2, “Lamin A, an activator of longevity/anti-aging SIRT1 protein” (THE UNIVERSITY OF HONG KONG, priority 2012, dated 2018).

Assays:
[1] = system: Zmpste24−/− mice; assay: BMSC colony-forming efficiency after in vivo treatment of Zmpste24−/− mice; design: species or system mouse; settings: resveratrol 20 μg/ml in drinking water, four months, vs vehicle
Method: (§1) Zmpste24^−/− mice have been described previously (Pendas et al., 2002). Mouse experimentation was performed in accordance with the guidelines of the Committee on the Use of Live Animals in Teaching and Research (CULATR) at the University of Hong Kong. New-born Zmpste24^−/− mice and wild-type controls were fed with resveratrol (20 μg/ml) or N-acetyl Cysteine (1 mg/ml) in drinking water. The survival of resveratrol-treated, NAC-treated, or vehicle-treated Zmpste24^−/− mice was recorded and their body weight was monitored weekly. The trabecular bone organization and bone mineral density were determined by micro-CT. The survival rate was analyzed by Kaplan-Meier method and statistical comparison was performed by Log-rank (Mantel-Cox) Test.
Bone marrow stromal cells were isolated and cultured according to modified protocol (Enumeration and Expansion of Mouse Mesenchymal Progenitor Cells Using MESENCUILT®, Stemcell Technologies, Canada). Briefly, bone marrow cells were flushed out from femurs and tibias with α-MEM (Invitrogen, Carlsbad, Calif., USA) supplemented with 20% FBS, and plated in petri dishes. Non-adherent cells were removed on day 3 and medium was replaced every 3 days. […] Colonies containing more than 50 cells were counted. BMSC colony forming efficiency was calculated as number of colonies formed by […] bone marrow nucleated cells. […]

[2] = system: NM-associated SIRT1; assay: NM association of SIRT1 in BMSCs (subcellular fractionation, Western blotting); format: cell-based, mouse; settings: wild-type and Zmpste24−/− BMSCs, different concentrations, compared to untreated controls
Method: Cells were fractionated as described (Mendez and Stillman, 2000). Briefly, the cells were suspended in 100 μl ice-cold buffer A (10 mM HEPES, pH 7.9, 10 mM KCl, 1.5 mM MgCl2, 0.34 M sucrose, 10% glycerol, 1 mM DTT, protease inhibitors). After the addition of 0.1% Triton X-100, the cell suspension was mixed gently, incubated on ice for 5 min and centrifuged at 1300×g at 4° C. for 4 min. The supernatant (S1) was transferred to a new tube and clarified by high-speed centrifugation (12000×g, 10 min, 4° C.). The remaining nuclei pellet (P1) was washed once with 100 μl buffer A and then resuspended in 100 μl buffer A supplemented with 1 mM CaCl2 and 2 units of micrococcal nuclease, and incubated at 37° C. for 15 min. The reaction was stopped by adding 1 mM EGTA and the suspension was then centrifuged at 1300×g at 4° C. for 4 min. The resultant pellet was resuspended in 100 μl of buffer B (3 mM EDTA, 0.2 mM EGTA, 1 mM DTT) and centrifuged at 1700×g at 4° C. for 4 min. […]
Western blotting was performed as described previously (Liu et al., 2005). Relative band intensity was measured by IMAGE J® and normalized to corresponding wild-type or untreated controls as indicated. […]

[3] = system: Zmpste24−/− mice; assay: Catalase, acetyl p53 and H3K9ac levels in BMSCs isolated from treated Zmpste24−/− mice; format: in vivo, mouse; settings: resveratrol 20 μg/ml in drinking water
Method: as §1
Western blotting was performed as described previously (Liu et al., 2005). Relative band intensity was measured by IMAGE J® and normalized to corresponding wild-type or untreated controls as indicated.
Briefly, resveratrol was supplemented at a concentration of 20 μg/ml in drinking water. Four months after treatment, BMSCs were collected for examination and comparison between resveratrol-treated and vehicle-treated Zmpste24^−/− mice.

SMILES: Oc1ccc(C=Cc2cc(O)cc(O)c2)cc1 [resveratrol]
- BMSC colony-forming efficiency [1]: significantly increased
- NM-associated SIRT1 [2]: increased
- level of acetyl H3K9 in BMSCs [3]: decreased
- level of acetyl p53 in BMSCs [3]: decreased
- level of catalase in BMSCs [3]: enhanced
